Measurements as given in patent US8021661B2, “Cripto binding molecules” (Biogen Idec MA Inc., priority 2005, dated 2011).

Key:
NCCIT xenograft tumors = test: Established NCCIT human testicular carcinoma xenografts; format: in vivo, athymic nude mice; details: cis-platinum 2 mg/kg/injection SC 3×/wk×6; Day 20 to Day 66
Protocol: Treatments were initiated on Day 15 when the tumors reached a minimum change in size of 100 mg.
One hundred fifty (150) male athymic nude mice (Harlan Sprague Dawley, Madison, Wis.) were started on the study at seven to eight weeks of age. Animals were acclimated to the laboratory for at least five days prior to implantation of the tumor. Housing was in ventilated cage racks, and food and water were allowed ad libitum.
NCCIT cells were obtained from the American Tissue Type Collection (Manassas, Va.). The cell line was passed in vitro 4 times prior to implantation. Cells were grown in vitro in RPMI-1640+10% fetal bovine serum (FBS) media without antibiotics (5% CO2).
An inoculum of 5×10^6 NCCIT cells in 200 L RPMI-1640 without serum (25%) plus Matrigel (75%) was implanted SC into the right flank area on Day 0. Tumor size and body weight measurements were recorded at least twice weekly beginning on Day 6. On Day 15, mice with tumors with a minimum increase in tumor weight of 100 mg and a maximum increase of 244 mg, excluding tumors with non-progressive growth, were randomized to treatment and control groups (see Table 12). […]
Tumor measurements were determined using digital calipers. Body weights and tumor size measurements were recorded on Day 6 and were continued at least twice weekly until the termination of the study. […]

Calu-6 xenograft tumors = test: Established Calu-6 human lung xenografts; format: in vivo, athymic nude mice; details: irinotecan 10 mg/kg on Day 13-14, 17-21, 24-26; Day 20 until Day 45
Protocol: One hundred sixty (160) female athymic nude mice (Harlan Sprague Dawley, Madison, Wis.) were started on the study at eight to nine weeks of age. Animals were acclimated to the laboratory for at least five days prior to implantation of the tumor. Housing was in ventilated cage racks, and food and water were allowed ad libitum.
Calu-6 cells were obtained from the American Tissue Type Collection (Manassas, Va.). The cell line was passed in vitro 11 times prior to implantation. Cells were grown in vitro in RPMI-1640+10% fetal bovine serum (FBS) media without antibiotics (5% CO2). Bacterial cultures were performed on aliquots of the tumor homogenate preparation that was implanted into the mice.
On Day −1, the mice were implanted SC with BioMedics animal ID chips (Model IMI-1000; Seaford, Del.) subcutaneously on the left flank. An inoculum of 5×10^6 Calu-6 cells in 200 μL RPMI-1640 without serum was implanted SC into the right flank area on Day 0. Tumor size and body weight measurements were recorded at least twice weekly beginning on Day 4. When the tumors measured a minimum of 100 mg, the mice were randomized to treatment and control groups (see Table 13). […]
Tumor measurements were determined using digital calipers. Body weights and tumor size measurements were recorded on Day 4 and were continued twice weekly until the termination of the study. […]

BT-474 xenograft tumors = test: Established BT-474 human breast tumor xenografts, full-length B3F6.1-DM4; format: in vivo, athymic nude mice; details: Taxol 25 mg/kg IP q4d×3 starting Day 15
Text: One hundred forty (140) female athymic nude mice (Harlan Sprague Dawley, Madison, Wis.) were started on the study at ten weeks of age. Animals were acclimated to the laboratory for at least five days prior to implantation of the tumor. Housing was in ventilated cage racks, and food and water were allowed ad libitum.
BT-474 tumors were obtained from cryopreserved solid tumor fragments from a serially passaged in vivo donor line established at Biogen Idec (cryo reg #0141, established originally from cells obtained from the […] (Manassas, Va.)). Tumor fragments were removed from cryopreservation and serially passaged SC in vivo for 3 generations in female athymic nude mice prior to implantation for this study. […]
On Day −1, the mice were implanted with BioMedics animal ID chips (Model IMI-1000; Seaford, Del.) SC on the left flank. […] Tumor size and body weight measurements were recorded at least twice weekly beginning on Day 5. When the tumors measured a minimum of 100 mg (Day 15), mice were randomized to treatment and control groups (see Table 10) based on tumor size and excluding tumors with non-progressive growth. […]
Tumor measurements were determined using digital calipers. Body weights and tumor size measurements were recorded on Day 0 and were continued twice weekly until the termination of the study. […]

[1] = Size exclusion chromatography of purified antibody; format: physicochemical; details: purified using only the Protein G column
Protocol: Antibody was produced and purified using methods described in Example 4 above. […] Reduced and non-reduced purified protein samples were analyzed by SDS-PAGE electrophoresis. Under non-reducing conditions, Form A is expected to migrate as a single 120 kDa homodimer and Form B as a 60 kDa doublet.
Reduced and non-reduced purified protein samples were analyzed by SDS-PAGE electrophoresis. Under these conditions, Form A is expected to migrate as a single 120 kDa homodimer and Form B as a 60 kDa doublet.

N.N.[Cl][Pt][Cl] [Cis-platinum, cisplatin]
inhibition of tumor growth (NCCIT xenograft tumors): significant inhibition (P<0.05) of tumor growth from Day 20 to Day 66

CCc1c2c(nc3ccc(OC(=O)N4CCC(N5CCCCC5)CC4)cc13)-c1cc3c(c(=O)n1C2)COC(=O)[C@]3(O)CC [Irinotecan, irinotecan]
inhibition of tumor growth (Calu-6 xenograft tumors): significant (P<0.001) inhibition of tumor growth

CC(=O)O[C@H]1C(=O)[C@@]2(C)[C@H]([C@H](OC(=O)c3ccccc3)[C@]3(O)C[C@H](OC(=O)[C@H](O)[C@@H](NC(=O)c4ccccc4)c4ccccc4)C(C)=C1C3(C)C)[C@]1(OC(C)=O)CO[C@@H]1C[C@@H]2O [Taxol, paclitaxel]
inhibition of tumor growth (BT-474 xenograft tumors): significant (P<0.05) inhibition of tumor growth from Day 26 to Day 50

B1: chimeric dd-B3F6: CH2 domain-deleted chimeric B3F6 with connecting peptide SEQ ID NO: 5; heavy chain SEQ ID NO: 3, light chain SEQ ID NO: 4 (antibody)
heavy: QVQLQQVGAELVKPGASVKLSCKASGYTFTSYWIHWVKQRPGQGLEWIGENDPSNGRTNYNEKFKNKATLTVDKSSSTAYMHLSSLTSEDSAVYYCSRGPNYFYSMDYWGQGTSVTVSSASTKGPSVFPLAPSSKSTSGGTAALGCLVKDYFPEPVTVSWNSGALTSGVHTFPAVLQSSGLYSLSSVVTVPSSSLGTQTYICNVNHKPSNTKVDKKVEPKSCDKTHTCPPCPEPKSCDTPPPCPRCPAPGGGSSGGGSGGQPREPQVYTLPPSRDELTKNQVSLTCLVKGFYPSDIAVEWESNGQPENNYKTTPPVLDSDGSFFLYSKLTVDKSRWQQGNVFSCSVMHEALHNHYTQKSLSLSPG
light: DFLMTQTPLSLPVSLGDQASISCRSSQSIVHSNGNTYLEWYLQKPGQSPKLLIYKVSNRFSGVPDRFSGSGSGTDFTLKISRVEAEDLGVYYCFQGSHVPLTFGAGTKLELKRTVAAPSVFIFPPSDEQLKSGTASVVCLLNNFYPREAKVQWKVDNALQSGNSQESVTEQDSKDSTYSLSSTLTLSKADYEKHKVYACEVTHQGLSSPVTKSFNRGEC
monomer (size exclusion chromatography) [1]: 93-98%
